Active and inactive are the calls of the source.
Legend:
[1] = A cytotoxicity screen of small molecule inhibitors of the PhoP region in Salmonella typhi identified in the primary screen. [Related pubchem assays: 1850, 1864, 1985 ]; assay type: functional
[2] = tested on: Streptococcus sp. 'group A'; test: Streptococcus pyogenes SK(-)GAS viability under kanamycin – luminescence, BacTiterGlo, confirmation, counter-screen for streptokinase expression inhibitor project, dose response (AID 1900); assay type: functional, organism-based
Streptococcus = test: GAS UMAA2166 growth inhibition – luminescence, BacTiterGlo, counter-screen for streptokinase expression inhibitor project, dose response (AID 1915); assay type: functional, organism-based;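 also: potency for reduction of bacterial viability or growth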
Beta-galactosidase = Beta-galactosidase (Escherichia coli, UniProt Q8VNN2); test: detection-enzyme interference by beta-gal modulators – biochemical, E. coli enzyme, set 3, artefact control for CCR6 antagonist project, dose response (AID 504712); assay type: functional
Chain of Beta-galactosidase (Q8VNN2 whole entry): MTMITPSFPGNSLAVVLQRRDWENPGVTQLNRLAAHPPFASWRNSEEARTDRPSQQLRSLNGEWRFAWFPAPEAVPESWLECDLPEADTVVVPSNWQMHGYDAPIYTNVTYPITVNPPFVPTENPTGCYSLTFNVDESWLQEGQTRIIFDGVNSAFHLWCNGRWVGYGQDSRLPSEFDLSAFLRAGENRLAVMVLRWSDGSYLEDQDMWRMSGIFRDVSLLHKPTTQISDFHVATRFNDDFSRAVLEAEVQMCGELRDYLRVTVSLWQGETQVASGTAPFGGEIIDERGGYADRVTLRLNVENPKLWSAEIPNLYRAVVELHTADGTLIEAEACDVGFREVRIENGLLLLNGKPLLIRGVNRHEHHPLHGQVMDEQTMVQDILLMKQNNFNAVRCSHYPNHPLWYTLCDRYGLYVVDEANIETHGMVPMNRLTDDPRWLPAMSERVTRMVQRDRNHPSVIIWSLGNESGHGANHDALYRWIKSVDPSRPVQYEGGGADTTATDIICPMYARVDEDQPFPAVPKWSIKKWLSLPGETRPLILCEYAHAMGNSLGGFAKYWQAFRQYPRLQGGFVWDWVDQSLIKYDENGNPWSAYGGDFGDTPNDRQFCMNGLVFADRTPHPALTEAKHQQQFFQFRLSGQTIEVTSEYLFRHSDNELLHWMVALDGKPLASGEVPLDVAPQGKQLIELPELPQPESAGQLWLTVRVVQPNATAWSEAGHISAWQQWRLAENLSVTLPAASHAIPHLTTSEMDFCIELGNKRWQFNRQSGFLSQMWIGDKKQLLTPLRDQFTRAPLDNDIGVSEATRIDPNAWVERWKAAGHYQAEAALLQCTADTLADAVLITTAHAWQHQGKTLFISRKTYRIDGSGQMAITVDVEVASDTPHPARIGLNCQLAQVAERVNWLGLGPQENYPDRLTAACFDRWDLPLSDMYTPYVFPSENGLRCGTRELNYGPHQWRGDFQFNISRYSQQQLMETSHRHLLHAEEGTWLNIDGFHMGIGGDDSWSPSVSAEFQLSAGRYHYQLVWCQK

[3] = molecular target: Eukaryotic translation initiation factor 4H (Homo sapiens, UniProt Q15056); test: eIF4H binding inhibition – biochemical, uHTS, fluorescence polarization, translation initiation inhibitor project, primary screen (AID 2012)
[4] = molecular target: Polyadenylate-binding protein 1 (Homo sapiens, UniProt P11940); test: blockers of PABP interaction with poly(A) – biochemical, fluorescence polarization, […] (AID 2014)
Chain of Polyadenylate-binding protein 1 (P11940 whole entry, the tested form may be a part): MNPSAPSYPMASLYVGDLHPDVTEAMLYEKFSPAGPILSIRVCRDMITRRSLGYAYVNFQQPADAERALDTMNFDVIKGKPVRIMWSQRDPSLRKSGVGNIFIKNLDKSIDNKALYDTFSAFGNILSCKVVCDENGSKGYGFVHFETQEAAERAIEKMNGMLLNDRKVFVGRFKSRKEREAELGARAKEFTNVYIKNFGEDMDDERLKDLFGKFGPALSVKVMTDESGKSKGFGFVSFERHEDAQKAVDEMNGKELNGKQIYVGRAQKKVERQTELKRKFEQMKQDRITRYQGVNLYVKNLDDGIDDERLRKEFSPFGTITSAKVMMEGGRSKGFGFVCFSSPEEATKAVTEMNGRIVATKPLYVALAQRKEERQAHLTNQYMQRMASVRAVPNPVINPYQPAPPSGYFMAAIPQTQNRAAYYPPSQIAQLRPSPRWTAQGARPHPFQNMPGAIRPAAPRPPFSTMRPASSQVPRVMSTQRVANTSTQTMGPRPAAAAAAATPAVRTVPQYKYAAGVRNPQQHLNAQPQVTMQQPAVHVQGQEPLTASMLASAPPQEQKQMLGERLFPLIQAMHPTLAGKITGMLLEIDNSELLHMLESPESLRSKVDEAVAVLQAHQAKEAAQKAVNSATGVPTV

[5] = molecular target: T1, Carboxy-terminal domain RNA polymerase II polypeptide A small phosphatase 1 (Homo sapiens, UniProt Q9GZU7); test: CTDSP1 inhibitors, concentration-response, biochemical, absorbance readout, ultra-high-throughput screen actives (AID 540297); assay type: functional
T1 sequence (Q9GZU7 whole entry): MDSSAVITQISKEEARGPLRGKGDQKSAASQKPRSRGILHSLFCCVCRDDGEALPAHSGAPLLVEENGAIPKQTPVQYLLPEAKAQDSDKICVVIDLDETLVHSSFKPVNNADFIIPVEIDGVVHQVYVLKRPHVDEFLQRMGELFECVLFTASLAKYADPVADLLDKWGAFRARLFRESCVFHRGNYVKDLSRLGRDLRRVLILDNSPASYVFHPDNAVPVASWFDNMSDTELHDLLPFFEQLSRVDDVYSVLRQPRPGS

[6] = M. tuberculosis growth inhibition, HTS (AID 449762); assay type: functional
[7] = molecular target: DNA dC->dU-editing enzyme APOBEC-3A (Homo sapiens, UniProt P31941); test: A3A deaminase inhibition for selectivity – biochemical, dose response (AID 504722); assay type: functional
Chain of DNA dC->dU-editing enzyme APOBEC-3A (P31941 whole entry): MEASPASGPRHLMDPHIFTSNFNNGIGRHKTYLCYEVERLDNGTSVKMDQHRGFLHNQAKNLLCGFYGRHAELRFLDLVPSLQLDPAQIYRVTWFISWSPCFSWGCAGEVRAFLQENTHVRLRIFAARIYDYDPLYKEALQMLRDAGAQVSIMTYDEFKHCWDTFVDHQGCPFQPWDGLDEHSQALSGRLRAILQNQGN

[8] = molecular target: DNA dC->dU-editing enzyme APOBEC-3G (Homo sapiens, UniProt Q9HC16); test: Dose Response confirmation of small molecule APOBEC3G DNA Deaminase Inhibitors via a fluorescence-based single-stranded DNA deaminase assay. [Related pubchem assays (depositor defined):AID493012, AID493028]; assay type: functional
Chain of DNA dC->dU-editing enzyme APOBEC-3G (Q9HC16 whole entry): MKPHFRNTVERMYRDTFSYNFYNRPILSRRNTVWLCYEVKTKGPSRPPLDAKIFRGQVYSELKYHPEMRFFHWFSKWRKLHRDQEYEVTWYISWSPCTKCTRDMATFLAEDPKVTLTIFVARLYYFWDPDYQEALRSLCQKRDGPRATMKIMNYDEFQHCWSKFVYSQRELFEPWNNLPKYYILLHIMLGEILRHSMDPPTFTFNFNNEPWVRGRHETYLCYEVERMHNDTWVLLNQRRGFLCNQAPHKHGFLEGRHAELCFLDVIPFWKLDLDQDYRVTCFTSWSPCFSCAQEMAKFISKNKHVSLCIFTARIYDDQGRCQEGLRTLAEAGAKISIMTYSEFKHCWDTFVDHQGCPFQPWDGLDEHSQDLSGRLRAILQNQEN

[9] = molecular target: T2, Rac GTPase-activating protein 1 (Homo sapiens, UniProt Q9H0H5); test: blockers of MgcRacGAP-driven Rac1 GTP hydrolysis – biochemical, ADP Hunter fluorescence, primary and confirmatory, confirmation (AID 624330); assay type: functional
T2 sequence (Q9H0H5 whole entry): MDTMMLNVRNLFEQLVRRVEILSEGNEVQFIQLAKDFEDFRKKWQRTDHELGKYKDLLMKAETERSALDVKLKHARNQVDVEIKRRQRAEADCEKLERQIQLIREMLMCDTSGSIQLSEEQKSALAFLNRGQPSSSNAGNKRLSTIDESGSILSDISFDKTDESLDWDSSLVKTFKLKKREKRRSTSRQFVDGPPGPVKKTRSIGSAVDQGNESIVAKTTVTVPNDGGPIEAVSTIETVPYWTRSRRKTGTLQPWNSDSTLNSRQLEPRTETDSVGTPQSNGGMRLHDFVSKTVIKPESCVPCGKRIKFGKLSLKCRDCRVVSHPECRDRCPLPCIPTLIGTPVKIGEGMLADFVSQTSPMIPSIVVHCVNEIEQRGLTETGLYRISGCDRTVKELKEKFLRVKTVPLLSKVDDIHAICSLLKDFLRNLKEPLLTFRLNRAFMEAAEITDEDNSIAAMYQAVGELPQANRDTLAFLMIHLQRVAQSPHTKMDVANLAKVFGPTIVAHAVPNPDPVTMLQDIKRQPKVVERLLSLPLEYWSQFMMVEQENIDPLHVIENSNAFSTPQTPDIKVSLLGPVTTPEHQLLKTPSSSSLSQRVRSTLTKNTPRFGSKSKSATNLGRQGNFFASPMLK

[10] = molecular target: Eukaryotic translation initiation factor 4E (Mus musculus, UniProt P63073); test: blockers of eIF4G binding by eIF4E – biochemical, TR-FRET, dose response (AID 855); assay type: functional;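 also: potency for disrupting eIF4E binding to eIF4GI seen as loss of FRET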
Chain of Eukaryotic translation initiation factor 4E (P63073 whole entry): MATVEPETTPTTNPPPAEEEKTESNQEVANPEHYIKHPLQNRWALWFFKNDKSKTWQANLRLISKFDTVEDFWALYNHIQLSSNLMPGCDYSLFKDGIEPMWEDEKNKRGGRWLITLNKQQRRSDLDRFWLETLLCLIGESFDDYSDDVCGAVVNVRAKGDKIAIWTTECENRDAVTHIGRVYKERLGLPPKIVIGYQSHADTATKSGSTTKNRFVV

[11] = molecular target: T3, Short transient receptor potential channel 4 (Mus musculus, UniProt Q9QUQ5); test: potentiation of DAMGO-evoked TRPC4 calcium signal – cell-based, HEK293 TRPC4/mu-opioid, Fluo-4 calcium, EC20 DAMGO, dose response (AID 434941); assay type: functional
T3 sequence (Q9QUQ5 whole entry): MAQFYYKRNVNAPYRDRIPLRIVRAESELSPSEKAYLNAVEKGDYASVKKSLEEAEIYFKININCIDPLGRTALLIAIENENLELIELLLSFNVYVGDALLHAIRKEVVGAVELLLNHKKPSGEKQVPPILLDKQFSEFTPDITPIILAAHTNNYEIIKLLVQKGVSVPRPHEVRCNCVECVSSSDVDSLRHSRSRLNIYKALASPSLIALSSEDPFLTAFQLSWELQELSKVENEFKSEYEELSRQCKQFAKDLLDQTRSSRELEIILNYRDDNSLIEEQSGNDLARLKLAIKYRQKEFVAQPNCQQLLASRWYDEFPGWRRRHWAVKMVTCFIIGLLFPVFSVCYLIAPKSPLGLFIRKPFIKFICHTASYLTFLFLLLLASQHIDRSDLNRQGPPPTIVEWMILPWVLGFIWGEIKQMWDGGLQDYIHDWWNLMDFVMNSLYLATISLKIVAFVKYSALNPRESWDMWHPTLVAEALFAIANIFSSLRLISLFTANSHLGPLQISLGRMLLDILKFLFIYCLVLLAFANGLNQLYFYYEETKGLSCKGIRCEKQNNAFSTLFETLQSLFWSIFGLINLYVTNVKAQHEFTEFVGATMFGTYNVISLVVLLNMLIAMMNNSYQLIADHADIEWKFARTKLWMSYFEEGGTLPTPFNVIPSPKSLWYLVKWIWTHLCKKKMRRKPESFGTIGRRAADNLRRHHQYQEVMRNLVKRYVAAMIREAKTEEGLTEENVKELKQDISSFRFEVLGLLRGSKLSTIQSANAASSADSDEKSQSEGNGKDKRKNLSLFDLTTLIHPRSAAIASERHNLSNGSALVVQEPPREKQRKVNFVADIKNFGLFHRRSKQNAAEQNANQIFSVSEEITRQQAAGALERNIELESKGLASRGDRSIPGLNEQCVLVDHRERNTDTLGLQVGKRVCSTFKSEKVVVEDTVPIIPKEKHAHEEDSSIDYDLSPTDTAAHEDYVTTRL

[12] = molecular target: T3, Short transient receptor potential channel 4; test: calcium entry via TRPC4 opening agents – cell-based, HEK293 TRPC4/mu-opioid, Fluo-4 calcium, dose response (AID 434937); assay type: functional
HEK293 [13] = test: inhibition of NOD1-driven NF-kB reporter – cell-based, luminescence, uHTS, primary screen (AID 1578); assay type: functional; conditions: Homo sapiens
HEK293 [14] = test: cells; assay type: functional, cell-based; conditions: Homo sapiens
HEK293 [15] = test: cells; assay type: functional, cell-based; conditions: Homo sapiens; remark: listed apart in the source
[16] = molecular target: Nucleotide-binding oligomerization domain-containing protein 2 (Homo sapiens, UniProt Q9HC29); test: inhibition of NOD2-driven NF-kB reporter – cell-based, luminescence, uHTS, HEK293 (AID 1566); assay type: functional
Chain of Nucleotide-binding oligomerization domain-containing protein 2 (Q9HC29 whole entry, the tested form may be a part): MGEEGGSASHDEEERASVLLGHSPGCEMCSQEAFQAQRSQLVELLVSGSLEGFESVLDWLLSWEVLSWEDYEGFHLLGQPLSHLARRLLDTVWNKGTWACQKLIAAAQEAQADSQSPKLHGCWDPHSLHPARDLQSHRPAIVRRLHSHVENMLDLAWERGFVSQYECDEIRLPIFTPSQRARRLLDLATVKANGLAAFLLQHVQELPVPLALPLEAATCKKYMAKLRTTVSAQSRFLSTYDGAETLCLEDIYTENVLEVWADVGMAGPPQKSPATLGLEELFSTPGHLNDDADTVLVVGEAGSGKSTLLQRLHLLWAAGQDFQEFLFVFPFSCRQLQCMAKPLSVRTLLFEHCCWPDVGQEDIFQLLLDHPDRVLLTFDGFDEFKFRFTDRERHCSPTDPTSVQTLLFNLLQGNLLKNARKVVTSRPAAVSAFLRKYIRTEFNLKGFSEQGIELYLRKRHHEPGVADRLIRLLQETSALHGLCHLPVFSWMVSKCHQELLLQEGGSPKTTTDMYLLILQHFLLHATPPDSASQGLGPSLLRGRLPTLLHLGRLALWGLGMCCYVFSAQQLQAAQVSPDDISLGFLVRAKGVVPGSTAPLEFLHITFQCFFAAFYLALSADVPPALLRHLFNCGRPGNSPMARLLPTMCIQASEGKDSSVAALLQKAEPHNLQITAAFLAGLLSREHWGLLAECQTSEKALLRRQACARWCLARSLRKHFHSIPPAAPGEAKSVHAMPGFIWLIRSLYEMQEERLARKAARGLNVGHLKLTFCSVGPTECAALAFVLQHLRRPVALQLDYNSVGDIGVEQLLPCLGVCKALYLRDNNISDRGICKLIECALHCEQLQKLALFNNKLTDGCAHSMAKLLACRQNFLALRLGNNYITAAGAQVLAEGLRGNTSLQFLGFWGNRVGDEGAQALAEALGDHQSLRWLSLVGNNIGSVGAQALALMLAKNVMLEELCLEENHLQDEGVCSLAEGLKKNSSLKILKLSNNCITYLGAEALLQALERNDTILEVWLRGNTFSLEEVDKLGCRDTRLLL

HEK293 [17] = test: NOD2 signaling inhibitors in MDP-stimulated cells, cell-based, uHTS, luminescence (AID 2001); assay type: functional; conditions: Homo sapiens
HEK293 [18] = test: cells; assay type: functional, cell-based; conditions: Homo sapiens; remark: listed apart in the source
[19] = molecular target: T4, Eukaryotic translation initiation factor 2-alpha kinase 3 (Homo sapiens, UniProt Q9NZJ5); test: Dose response cell-based high-throughput screening assay to measure PERK inhibition. [Related pubchem assays: 1416 ]; assay type: functional
T4 sequence (Q9NZJ5 whole entry): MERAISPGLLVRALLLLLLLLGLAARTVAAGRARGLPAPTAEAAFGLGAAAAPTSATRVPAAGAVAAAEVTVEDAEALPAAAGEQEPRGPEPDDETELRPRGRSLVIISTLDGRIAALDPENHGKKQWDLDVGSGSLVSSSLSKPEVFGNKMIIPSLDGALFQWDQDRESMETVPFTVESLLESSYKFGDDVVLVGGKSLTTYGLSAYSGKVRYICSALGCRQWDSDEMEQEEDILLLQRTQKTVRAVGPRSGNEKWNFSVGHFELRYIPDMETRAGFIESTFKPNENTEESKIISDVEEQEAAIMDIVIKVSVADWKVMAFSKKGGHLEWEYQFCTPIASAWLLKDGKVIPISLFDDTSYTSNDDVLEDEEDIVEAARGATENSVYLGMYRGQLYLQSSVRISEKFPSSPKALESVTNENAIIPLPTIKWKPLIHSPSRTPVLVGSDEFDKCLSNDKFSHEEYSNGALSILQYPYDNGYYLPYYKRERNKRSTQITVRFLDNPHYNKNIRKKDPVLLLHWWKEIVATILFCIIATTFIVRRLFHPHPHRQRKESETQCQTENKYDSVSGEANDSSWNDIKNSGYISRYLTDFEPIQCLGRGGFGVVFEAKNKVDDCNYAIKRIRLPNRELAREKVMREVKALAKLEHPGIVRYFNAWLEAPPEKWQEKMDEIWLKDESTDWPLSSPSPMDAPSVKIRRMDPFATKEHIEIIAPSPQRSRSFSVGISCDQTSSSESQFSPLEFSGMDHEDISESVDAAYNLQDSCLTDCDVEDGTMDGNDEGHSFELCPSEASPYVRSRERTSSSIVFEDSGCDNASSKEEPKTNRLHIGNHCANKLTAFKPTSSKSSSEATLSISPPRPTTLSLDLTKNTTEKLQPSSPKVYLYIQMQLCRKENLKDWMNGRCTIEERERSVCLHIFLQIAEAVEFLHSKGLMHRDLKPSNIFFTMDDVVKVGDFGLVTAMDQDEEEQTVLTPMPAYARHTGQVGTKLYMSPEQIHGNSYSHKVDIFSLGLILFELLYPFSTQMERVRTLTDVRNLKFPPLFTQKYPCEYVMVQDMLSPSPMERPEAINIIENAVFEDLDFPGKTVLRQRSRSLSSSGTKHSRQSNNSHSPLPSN

[20] = molecular target: T4, Eukaryotic translation initiation factor 2-alpha kinase 3; test: Counterscreen assay for PERK inhibitors: Dose response cell-based high throughput screening assay to measure inhibition of PERK at 6 hours. [Related pubchem assays: 1522, 1416 ]; assay type: functional
[21] = Trypanosoma cruzi growth suppression in host cells – NIH3T3 host cells, beta-gal luminescence, confirmation (AID 2044); assay type: functional, cell-based;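 also: intracellular parasites grown in NIH/3T3 mouse fibroblasts as host cells; luminescent beta-galactosidase reporter signal from transgenic T. cruzi replicating inside host cells; inhibitors lower the luminescence signal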
[22] = NIH3T3 cell viability loss – ATP luminescence, mouse fibroblasts, counter-screen, dose response (AID 2010); assay type: functional, cell-based;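 also: cells exposed to compound for about 90 hours before reading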
Trypsin = Trypsin (Sus scrofa, UniProt P00761); test: trypsin protease activity blockade – biochemical, quenched peptide fluorescence, cherry-pick, selectivity assay for Rce1 protease inhibitor project, dose response (AID 488789)
Chain of Trypsin (P00761 whole entry): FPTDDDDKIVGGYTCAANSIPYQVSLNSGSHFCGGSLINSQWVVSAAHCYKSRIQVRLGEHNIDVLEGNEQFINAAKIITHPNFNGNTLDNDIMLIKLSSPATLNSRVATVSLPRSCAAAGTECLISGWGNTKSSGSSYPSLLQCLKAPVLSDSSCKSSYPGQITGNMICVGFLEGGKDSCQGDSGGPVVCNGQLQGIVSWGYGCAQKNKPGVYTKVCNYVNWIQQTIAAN

Hexokinase = Hexokinase (Trypanosoma brucei, UniProt Q38C41); test: Confirmation assay for inhibitors of Trypanosoma brucei hexokinase 1-Analogue-first series. [Related pubchem assays (depositor defined):AID1430, AID1632, AID2516, AID2560, AID2579, AID2600, AID449725, AID492951]; assay type: functional
Chain of Hexokinase (Q38C41 whole entry): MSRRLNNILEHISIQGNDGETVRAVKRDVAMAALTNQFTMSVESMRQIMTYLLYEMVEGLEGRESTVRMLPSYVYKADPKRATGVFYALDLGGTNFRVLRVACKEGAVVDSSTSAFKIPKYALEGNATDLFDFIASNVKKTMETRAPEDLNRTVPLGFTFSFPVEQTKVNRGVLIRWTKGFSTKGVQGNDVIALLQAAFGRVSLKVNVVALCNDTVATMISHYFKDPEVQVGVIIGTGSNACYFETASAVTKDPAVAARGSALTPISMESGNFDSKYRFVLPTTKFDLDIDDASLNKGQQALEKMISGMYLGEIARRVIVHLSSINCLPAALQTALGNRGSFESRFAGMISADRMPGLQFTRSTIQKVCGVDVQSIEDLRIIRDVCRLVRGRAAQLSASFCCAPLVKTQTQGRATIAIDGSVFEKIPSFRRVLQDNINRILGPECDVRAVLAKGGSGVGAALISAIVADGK

CCN(CC(=O)NC(C)(C)C)C(=O)COc1c(Cl)cc(Cl)c2ccc(C)nc12
EC50 [1]: > 50 µM (active)
EC50 [2]: 1.45 µM (active)
EC50 (Streptococcus): 6.5 µM (active)
IC50 (Beta-galactosidase): > 66.6 µM (inactive)

O=S(=O)([O-])CCC[n+]1ccc(Oc2ccccc2)cc1
IC50 [3]: 48.3 µM (active)
IC50 [4]: 4.32 µM (active)
IC50 [5]: 12.9 µM (active)

Cc1nn(-c2ccccc2)c(S)c1/C=N/CCC/N=C/c1c(C)nn(-c2ccccc2)c1S
IC50 [6]: > 100 µM (active)
IC50 [7]: > 100 µM (inactive)
IC50 [8]: 5.47 µM (active)

COc1cccc(/C=N/n2c(S)nnc2-c2[nH]nc3c2CCC3)c1O
IC50 [7]: > 100 µM (inactive)
IC50 [8]: 2.48 µM (active)
IC50 [9]: 53.9 µM (active)

O=C1c2ccccc2C(=O)N1Cc1nc2ccccc2c(=O)n1-c1ccccn1
IC50 [10]: > 64 µM (inactive)

CC(C)Cc1nnc(NC(=O)c2cc([N+](=O)[O-])ccc2N2CCOCC2)s1
IC50 (Beta-galactosidase): > 66.6 µM (inactive)

CN(C)CCCOc1cccc(Cl)c1
EC50 [11]: 0.03 µM (active)
EC50 [12]: 0.06 µM (active)

Cc1cc(OCC(=O)Nc2ccncc2)cc(C)c1Cl
EC50 (HEK293 [13]): 2.46 µM (active)
IC50 (HEK293 [14]): 4.41 µM (active)
IC50 (HEK293 [15]): 12.3 µM (active)
EC50 [16]: 8.48 µM (active)
IC50 (HEK293 [17]): 6.09 µM (active)
IC50 (HEK293 [18]): > 20 µM (inactive)

CCCc1nc2ccccc2c(=O)n1N
EC50 [19]: > 55.7 µM (not active)
EC50 [20]: > 55.7 µM (not active)

CCOc1ccc(-n2c(C)c(C(C)=O)c3cc(O)ccc32)cc1
EC50 (HEK293 [13]): > 20 µM (inactive)
IC50 (HEK293 [14]): 0.451 µM (active)
IC50 (HEK293 [15]): > 20 µM (inactive)
EC50 [16]: > 20 µM (inactive)
IC50 (HEK293 [17]): 0.875 µM (active)
IC50 (HEK293 [18]): > 20 µM (inactive)

CC1Cc2ccccc2N1C(=O)CSc1nc2c(c(=O)n(C)c(=O)n2C)n1Cc1ccccc1 (stereo not given)
EC50 [21]: 4.07 µM (active)
EC50 [22]: > 60 µM (not active)
EC50 [11]: 0.15 µM (active)
EC50 [12]: 2.11 µM (active)

O=C(NC1CCCCCCC1)c1ccc2c(c1)OCO2
IC50 [10]: > 64 µM (inactive)

Cc1ccc2c(c1C)NC(C)CC2C (stereo not given)
EC50 [19]: > 55.7 µM (not active)
EC50 [20]: > 55.7 µM (not active)

COc1nc(-c2ccccc2)ccc1-c1noc(-c2ccccc2F)n1
AC50 (Trypsin): > 100 µM (inactive)

CCOC(=O)Cn1sc2ccccc2c1=O
IC50 (Hexokinase): 12.5 µM (active)

From ChEMBL document CHEMBL1201862, “PubChem BioAssay data set” (2004)
